Results published in patent EP0013067A1, “Bicyclic beta-lactam antibacterial agents, their use in pharmaceutical compositions, processes for their preparation and intermediates for use in such processes” (BEECHAM GROUP PLC, priority 1978, dated 1980).
Read-outs that look alike come from different tables or passages of the source.

Tests used:
Type in all cases: cell-based
[1] = antibacterial activity (general statement, no method given); conditions: prepared and tested by the applicant; no method or organisms given
[2] = system: Bacillus subtilis A; experiment: MIC, DST agar + 10% horse blood; conditions: read-out: MIC Agar
Description: (§1) The ninimum inhibitory concentrations (MIC) cf this compound required to inhibit the growth of various bacteria are tabulated balow: […]

[3] = system: Citrobacter freundii E8; experiment: MIC, DST agar + 10% horse blood
Description: as §1

[4] = system: E. coli ESS; experiment: MIC, DST agar + 10% horse blood; conditions: Escherichia coli, inoculum 0.001 ml of an undilute overnight broth culture
Description: as §1

[5] = system: Escherichia coli 0111; experiment: MIC, DST agar + 10% horse blood; conditions: Escherichia coli 0111, inoculum 0.001 ml of an undilute overnight broth culture
Description: as §1

[6] = system: Escherichia coli JT 39; experiment: MIC, DST agar + 10% horse blood
Description: as §1

[7] = system: Klebsiella aerogenes A; experiment: MIC, DST agar + 10% horse blood; conditions: read-out: MIC Agar
Description: as §1

[8] = system: Proteus mirabilis C977; experiment: MIC, DST agar + 10% horse blood
Description: as §1

[9] = system: Proteus morganii I580; experiment: MIC, DST agar + 10% horse blood; conditions: Morganella morganii
Description: as §1

[10] = system: Proteus rettgeri WM16; experiment: MIC, DST agar + 10% horse blood; conditions: Providencia rettgeri
Description: as §1

[11] = system: Proteus vulgaris W091; experiment: MIC, DST agar + 10% horse blood
Description: as §1

[12] = system: Pseudomonas aeruginosa A; experiment: MIC, DST agar + 10% horse blood; conditions: read-out: MIC Agar
Description: as §1

[13] = system: Salmonella typhimurium CT10; experiment: MIC, DST agar + 10% horse blood; conditions: Salmonella enterica, read-out: MIC Agar
Description: as §1

[14] = system: Serratia marcescens US20; experiment: MIC, DST agar + 10% horse blood
Description: as §1

[15] = system: Staphylococcus aureus 1517; experiment: MIC, DST agar + 10% horse blood
Description: as §1

[16] = system: Staphylococcus aureus Oxford; experiment: MIC, DST agar + 10% horse blood; conditions: read-out: MIC Agar
Description: as §1

[17] = system: Staphylococcus aureus Russell; experiment: MIC, DST agar + 10% horse blood; conditions: read-out: MIC Agar
Description: as §1

[18] = system: Streptococcus faecalis I; experiment: MIC, DST agar + 10% horse blood; conditions: Enterococcus faecalis, read-out: MIC Agar
Description: as §1

[19] = system: Streptococcus pneumoniae CN33; experiment: MIC, DST agar + 10% horse blood
Description: as §1

[20] = system: Streptococcus pyogenes CN10; experiment: MIC, DST agar + 10% horse blood
Description: as §1

[21] = system: Escherichia coli 0111; experiment: MIC, microtitre using Nutrient broth; conditions: Microtitre using Nutrient broth, inoculum 0.001 ml of an undilute overnight broth culture
Description: as §1

[22] = system: Escherichia coli JT 39; experiment: MIC, microtitre using Nutrient broth
Description: as §1

[23] = system: Klebsiella aerogenes A; experiment: MIC, microtitre using Nutrient broth; conditions: read-out: MIC Broth
Description: as §1

[24] = system: Proteus mirabilis C977; experiment: MIC, microtitre using Nutrient broth
Description: as §1

[25] = system: Pseudomonas aeruginosa A; experiment: MIC, microtitre using Nutrient broth; conditions: read-out: MIC Broth
Description: as §1

[26] = system: Staphylococcus aureus Oxford; experiment: MIC, microtitre using Nutrient broth; conditions: read-out: MIC Broth
Description: as §1

[27] = system: Staphylococcus aureus Russell; experiment: MIC, microtitre using Nutrient broth; conditions: read-out: MIC Broth
Description: as §1

[28] = system: Enterobacter cloacae N1; experiment: MIC, DST agar + 10% horse blood; conditions: Enterobacter cloacae, N1, read-out: MIC Agar
Description: as §1

[29] = system: Shigella sonnei MB 11967; experiment: MIC, DST agar + 10% horse blood; conditions: MB11967, inoculum 0.001 ml of an undilute overnight broth culture
Description: as §1

[30] = Bacillus subtilis A, DST agar + 10% horse blood, inoculum 0.001 ml of an undilute overnight broth culture
[31] = Staphylococcus aureus Oxford, DST agar + 10% horse blood, inoculum 0.001 ml of an undilute overnight broth culture
[32] = Staphylococcus aureus Russell, DST agar + 10% horse blood, inoculum 0.001 ml of an undilute overnight broth culture
[33] = Streptococcus pyogenes CN10, DST agar + 10% horse blood, inoculum 0.001 ml of an undilute overnight broth culture, read-out: MIC Agar
[34] = Staphylococcus aureus Oxford, Microtitre using Nutrient broth, inoculum 0.001 ml of an undilute overnight broth culture
[35] = Staphylococcus aureus Russell, Microtitre using Nutrient broth, inoculum 0.001 ml of an undilute overnight broth culture
[36] = Citrobacter freundii, E8, read-out: MIC Agar
[37] = Escherichia coli, JT39, read-out: MIC Agar
[38] = Proteus mirabilis, C977, read-out: MIC Agar
[39] = Proteus vulgaris, W091, read-out: MIC Agar
[40] = Serratia marcescens, US20, read-out: MIC Agar
[41] = Staphylococcus aureus, 1517, read-out: MIC Agar
[42] = Streptococcus pneumoniae, CN33, read-out: MIC Agar
[43] = Streptococcus pyogenes, CN10, read-out: MIC Agar
[44] = Escherichia coli, JT39, read-out: MIC Broth
[45] = Proteus mirabilis, C977, read-out: MIC Broth

Compound | MIC [2, 30] | MIC [4] | MIC [5] | MIC [16, 31] | MIC [17, 32] | MIC [20, 33] | MIC [21] | MIC [26, 34] | MIC [27, 35] | MIC ([2]; Bacillus subtilis) | MIC [3, 36] | MIC [28] | MIC [6, 37] | MIC ([7]; Klebsiella aerogenes) | MIC [8, 38] | MIC ([9]; I580, read-out: MIC Agar) | MIC ([16]; Staphylococcus aureus) | MIC ([17]; Staphylococcus aureus) | MIC [19, 42] | MIC [20, 43] | further results
O=C(O)C1=CSC2CC(=O)N12 (stereo not drawn) | – | – | – | – | – | – | – | – | – | – | – | – | – | – | – | – | – | – | – | – | antibacterial activity [1]: somewhat disappointing degree of antibacterial activity
CC(=O)NCCOCC1=C(C(=O)O)N2C(=O)CC2S1 (stereo not drawn) [compound 23, Sodium 2-(2-acetamidoethoxy)methylponom-3-carooxylate] | 2.5 mg/L | 10 mg/L | 25 mg/L | 2.5 mg/L | 25 mg/L | 1 mg/L | 31 mg/L | 4 mg/L | 16 mg/L | – | – | – | – | – | – | – | – | – | – | – | MIC ([3]; Citrobacter freundii E8, DST agar + 10% horse blood, inoculum 0.001 ml of an undilute overnight broth culture, read-out: MIC Agar): 25 mg/L; MIC ([6]; JT39, Escherichia coli JT 39, DST agar + 10% horse blood, inoculum 0.001 ml of an undilute overnight broth culture, read-out: MIC Agar): > 100 mg/L; MIC ([7]; Klebsiella aerogenes A, DST agar + 10% horse blood, inoculum 0.001 ml of an undilute overnight broth culture): 100 mg/L; MIC ([8]; Proteus mirabilis C977, DST agar + 10% horse blood, inoculum 0.001 ml of an undilute overnight broth culture, read-out: MIC Agar): 25 mg/L; MIC ([9]; Proteus morganii I580, DST agar + 10% horse blood, inoculum 0.001 ml of an undilute overnight broth culture, read-out: MIC Agar): > 100 mg/L; MIC ([10]; Proteus rettgeri WM16, DST agar + 10% horse blood, inoculum 0.001 ml of an undilute overnight broth culture, read-out: MIC Agar): > 100 mg/L; MIC ([11]; Proteus vulgaris W091, DST agar + 10% horse blood, inoculum 0.001 ml of an undilute overnight broth culture, read-out: MIC Agar): > 100 mg/L; MIC ([12]; Pseudomonas aeruginosa A, DST agar + 10% horse blood, inoculum 0.001 ml of an undilute overnight broth culture): > 100 mg/L; MIC ([13]; Salmonella typhimurium CT10, DST agar + 10% horse blood, inoculum 0.001 ml of an undilute overnight broth culture): 25 mg/L; MIC ([14]; Serratia marcescens US20, DST agar + 10% horse blood, inoculum 0.001 ml of an undilute overnight broth culture, read-out: MIC Agar): 100 mg/L; MIC ([15]; Staphylococcus aureus 1517, DST agar + 10% horse blood, inoculum 0.001 ml of an undilute overnight broth culture, read-out: MIC Agar): 50 mg/L; MIC ([18]; Streptococcus faecalis I, DST agar + 10% horse blood, inoculum 0.001 ml of an undilute overnight broth culture): > 100 mg/L; MIC ([19]; Streptococcus pneumoniae CN33, DST agar + 10% horse blood, inoculum 0.001 ml of an undilute overnight broth culture, read-out: MIC Agar): 0.5 mg/L; MIC ([22]; JT39, Escherichia coli JT 39, Microtitre using Nutrient broth, inoculum 0.001 ml of an undilute overnight broth culture, read-out: MIC Broth): 250 mg/L; MIC ([23]; Klebsiella aerogenes A, Microtitre using Nutrient broth, inoculum 0.001 ml of an undilute overnight broth culture): 62 mg/L; MIC ([24]; Proteus mirabilis C977, Microtitre using Nutrient broth, inoculum 0.001 ml of an undilute overnight broth culture, read-out: MIC Broth): 31 mg/L; MIC ([25]; Pseudomonas aeruginosa A, Microtitre using Nutrient broth, inoculum 0.001 ml of an undilute overnight broth culture): > 500 mg/L
COCOCC1=C(C(=O)[O-])N2C(=O)C[C@H]2S1.[Na+] [compound 25, Sodium 2-methoxymethoxymethylpenem-3-carboxylate] | – | 2.5 mg/L | 5 mg/L | – | – | – | 16 mg/L | – | – | 1.2 mg/L | 12.5 mg/L | > 50 mg/L | > 50 mg/L | 25 mg/L | 12.5 mg/L | > 50 mg/L | 2.5 mg/L | 5 mg/L | 0.2 mg/L | 0.5 mg/L | MIC ([10]; WM16, read-out: MIC Agar): 25 mg/L; MIC [11, 39]: > 50 mg/L; MIC ([12]; Pseudomonas aeruginosa): > 50 mg/L; MIC ([13]; TYPHIMURIUM): 5 mg/L; MIC [14, 40]: 25 mg/L; MIC [29]: 5 mg/L; MIC [15, 41]: > 50 mg/L; MIC [18]: 50 mg/L; MIC [22, 44]: 125 mg/L; MIC ([23]; Klebsiella aerogenes): 16 mg/L; MIC [24, 45]: 16 mg/L; MIC ([25]; Pseudomonas aeruginosa): 500 mg/L; MIC ([26]; Staphylococcus aureus): 2 mg/L; MIC ([27]; Staphylococcus aureus): 8 mg/L
CC(=O)NCOCC1=C(C(=O)[O-])N2C(=O)C[C@H]2S1.[Na+] [compound 29, Sodium 2-acetamidomethoxymethylpenem-3-carboxylate] | – | 2.5 mg/L | 5 mg/L | – | – | – | 16 mg/L | – | – | 1.2 mg/L | 5 mg/L | > 50 mg/L | > 50 mg/L | 50 mg/L | 12.5 mg/L | > 50 mg/L | 2.5 mg/L | 12.5 mg/L | 0.2 mg/L | 0.5 mg/L | MIC ([10]; WM16, read-out: MIC Agar): 50 mg/L; MIC [11, 39]: > 50 mg/L; MIC ([12]; Pseudomonas aeruginosa): > 50 mg/L; MIC ([13]; TYPHIMURIUM): 5 mg/L; MIC [14, 40]: 25 mg/L; MIC [29]: 5 mg/L; MIC [15, 41]: 50 mg/L; MIC [18]: 50 mg/L; MIC [22, 44]: 125 mg/L; MIC ([23]; Klebsiella aerogenes): 62 mg/L; MIC [24, 45]: 31 mg/L; MIC ([25]; Pseudomonas aeruginosa): > 500 mg/L; MIC ([26]; Staphylococcus aureus): 8 mg/L; MIC ([27]; Staphylococcus aureus): 16 mg/L
CCOC(C)OCC1=C(C(=O)[O-])N2C(=O)C[C@H]2S1.[Na+] (stereo partly drawn) [compound 34, Sodium 2-(1-ethoxyethoxy)methylpenem-3-carboxylate] | – | – | – | – | – | – | – | – | – | – | – | – | – | – | – | – | 2.5 mg/L | 10 mg/L | 1 mg/L | 1 mg/L | –
CNC(=O)OCC1=C(C(=O)O)N2C(=O)CC2S1 (stereo not drawn) [compound 36, Sodium 2-N-methylcarbamoyloxymethylpenem-3-carboxylate] | 2.5 mg/L | – | – | 12.5 mg/L | 12.5 mg/L | 25 mg/L | – | 8 mg/L | 16 mg/L | – | – | – | – | – | – | – | – | – | – | – | –
